For one assay, the system named is Male Wistar rats. As to conditions: rat, in vivo.
The next assay has as its system rats. The following applies: single i.v. dose 10 minutes before agonist: J-113397 1 mg/kg, naloxone 2 mg/kg.

Molecules are shown by their SMILES. Where “and” joins values, the source holds several entries; their conditions need not be identical. Identical values can stand only once.

Take `CN1CC[C@]23c4c5ccc(O)c4O[C@H]2[C@@H](O)C=C[C@H]3[C@H]1C5` [Morphine, morphine]: in the assay on Male Wistar rats (ip), the “effect on food intake versus the vehicle treated group” value is given as “dose-dependent increase in food-intake” and the “increase in food intake: antagonism by the opiate receptor antagonist naloxone” value is listed as “antagonized”.

Take `C=CCN1CC[C@]23c4c5ccc(O)c4O[C@H]2C(=O)CC[C@@]3(O)[C@H]1C5` [naloxone]: the “Mean ± S.E.M. food intake 120 min after ligand administration” value in the assay with Male Wistar rats is 0.09 ± 0.09 g and 0.05 ± 0.001 g. Further, the “effect on food intake versus the vehicle treated group” value in the assay with Male Wistar rats (ip) is “no effect on food intake”. In the assay with rats, the “effect on the nociceptin-induced decrease in blood pressure” value is “without effect”.

For the origin of these results see patent US8067603B2 (priority 2003, dated 2011).
